# From patent publication US20220009910A1, “TYROSINE KINASE 2 INHIBITORS, PREPARATION METHODS AND MEDICINAL USES THEREOF” (Eternity Bioscience Inc., priority 2020, published 2022)
# How the values were obtained:
# [1] = system: Tyk2-mediated, IFNα-induced STAT1 phosphorylation in human Kit225 T cell line; test: IFNα_Kit225 T Cell Assay (phosphorylated-STAT1, AlphaLISA); assay type: cell-based; conditions: Kit225 cells, compound 1 hour, human recombinant IFNα 20 minutes, pSTAT1; read-out: IFN-α Kit225 (IC50)
# Experimental: Kit225 cells were seeded in 384-well plate at a density of 0.5×10^5 cells/well in 4 μL HBSS, and incubated for 2 hours in a humidified, 5% CO2 cell culture incubator at 37° C. The cells were treated with serial diluted compounds for 1 hour and stimulated with human recombinant IFNα (Biolegend) for 20 minutes. The treated cells were then lysed and cellular phosphorylated-STAT1 levels were measured by AlphaLISA (PerkinElmer) according to the manufacturer's instructions. Inhibition data were calculated by comparison to vehicle control wells for 0% inhibition and non-stimulated control wells for 100% inhibition. Dose response curves were then generated to determine the concentration required to suppress 50% of cellular response (IC50) as derived by non-linear regression analysis using GraphPad Prism.
# [2] = system: Tyk2-mediated, IL23-induced STAT3 phosphorylation in human Kit225 T cell line; test: IL-23_Kit225 T Cell Assay (phosphorylated-STAT3, AlphaLISA); assay type: cell-based; conditions: Kit225 cells, compound 1 hour, human recombinant IL-23 20 minutes, pSTAT3
# Experimental: Kit225 cells (licensed from Professor Toshiyuki Hori, Ritsumeikan University, Japan) were seeded in 384-well plate at a density of 1×10^5 cells/well in 4 μL Hank's Balanced Salt Solution (HBSS, Gibco), and incubated for 2 hours in a humidified, 5% CO2 cell culture incubator at 37° C. The cells were treated with serial diluted compounds for 1 hour and stimulated with human recombinant IL-23 (R&D Systems) for 20 minutes. The treated cells were then lysed and cellular phosphorylated-STAT3 levels were measured by AlphaLISA (PerkinElmer) according to the manufacture's instructions. Inhibition data were calculated by comparison to vehicle control wells for 0% inhibition and non-stimulated control wells for 100% inhibition. Dose response curves were then generated to determine the concentration required to suppress 50% of cellular response (IC50) as derived by non-linear regression analysis using GraphPad Prism.
# Tyk2 JH2 Pseudokinase = molecular target: T1, Tyk2 JH2 Pseudokinase (Homo sapiens, UniProt P29597); test: KdELECT Competition Binding Assay; conditions: 11-point 3-fold dilution series, qPCR readout
# T1 construct: purchased Eurofins DiscoverX Corporation (CRO); host or cells: E. coli BL21-derived (T7 phage) or HEK-293
# T1 sequence (P29597 589-875 limits assumed): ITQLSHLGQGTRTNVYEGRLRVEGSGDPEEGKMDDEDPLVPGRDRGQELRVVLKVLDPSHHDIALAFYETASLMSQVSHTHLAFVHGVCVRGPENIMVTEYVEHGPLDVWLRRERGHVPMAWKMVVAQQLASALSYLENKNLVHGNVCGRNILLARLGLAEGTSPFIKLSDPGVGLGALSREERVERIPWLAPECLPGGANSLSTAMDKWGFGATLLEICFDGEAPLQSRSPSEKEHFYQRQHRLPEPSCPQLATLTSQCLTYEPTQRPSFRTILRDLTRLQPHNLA
# Experimental: The KdELECT Competition Binding Assay is performed by a CRO, Eurofins DiscoverX Corporation following the established standard protocol (DiscoverX, San Diego, Calif.). Briefly, Kinase-tagged T7 phage strains were prepared in an E. coli host derived from the BL21 strain. E. coli were grown to log-phase and infected with T7 phage and incubated with shaking at 32° C. until lysis. The lysates were centrifuged and filtered to remove cell debris. The remaining kinases were produced in HEK-293 cells and subsequently tagged with DNA for qPCR detection. Streptavidin-coated magnetic beads were treated with biotinylated small molecule ligands for 30 minutes at room temperature to generate affinity resins for kinase assays. The liganded beads were blocked with excess biotin and washed with blocking buffer (SeaBlock (Pierce), 1% BSA, 0.05% Tween 20, 1 mM DTT) to remove unbound ligand and to reduce nonspecific binding. Binding reactions were assembled by combining kinases, liganded affinity beads, and test compounds in 1× binding buffer (20% SeaBlock, 0.17×PBS, 0.05% Tween 20, 6 mM DTT). Test compounds were prepared as 111-fold stocks in 100% DMSO. Kds were determined using an 11-point 3-fold compound dilution series with three DMSO control points. All compounds for Kd measurements are distributed by acoustic transfer (non-contact dispensing) in 100% DMSO. The compounds were then diluted directly into the assays such that the final concentration of DMSO was 0.9%. All reactions performed in polypropylene 384-well plate. Each was a final volume of 0.02 mL. The assay plates were incubated at room temperature with shaking for 1 hour and the affinity beads were washed with wash buffer (1×PBS, 0.05% Tween 20). The beads were then re-suspended in elution buffer (1×PBS, 0.05% Tween 20, 0.5 μM non-biotinylated affinity ligand) and incubated at room temperature with shaking for 30 minutes. The kinase concentration in the eluates was measured by quantitative PCR.
# Compound Handling: An 11-point 3-fold serial dilution of each test compound was prepared in 100% DMSO at 100-fold final test concentration and subsequently diluted to 1-fold in the assay (final DMSO concentration=1%). Most Kds were determined using a compound top concentration=30,000 nM. If the initial Kd determined was <0.5 nM (the lowest concentration tested), the measurement was repeated with a serial dilution starting at a lower top concentration.
# [3] = system: experimental autoimmune disease models (psoriasis, SLE, and IBD); conditions: cited from earlier work
# [4] = system: IL-12/IL-23 and Type I IFN pathways; conditions: Tokarski et al. 2015; cited from earlier work
molecule,measurement,setting,value
"[2H]C([2H])([2H])NC(=O)c1nnc(NC(=O)C2CC2)cc1Nc1cc(N2CC(OC)C2)cc(-c2ncn(C)n2)c1OC [Example A1, 6-(cyclopropanecarboxamido)-4-((2-methoxy-5-(3-methoxyazetidin-1-yl)-3-(1-methyl-1H-1,2,4-triazol-3-yl)phenyl)amino)-N-(methyl-d3)pyridazine-3-carboxamide]",IC50,[1],43 nM
same,IC50,[2],57 nM
same,Kd,Tyk2 JH2 Pseudokinase,0.0035 nM
"CNC(=O)c1nnc(NC(=O)C2CC2)cc1Nc1cc(N2CC(OC)C2)cc(-c2ncn(C)n2)c1OC [Example A2, 6-(cyclopropanecarboxamido)-4-((2-methoxy-5-(3-methoxyazetidin-1-yl)-3-(1-methyl-1H-1,2,4-triazol-3-yl)phenyl)amino)-N-methylpyridazine-3-carboxamide]",IC50,[1],50 nM
same,IC50,[2],88 nM
same,Kd,Tyk2 JH2 Pseudokinase,0.004 nM
"[2H]C([2H])([2H])NC(=O)c1nnc(NC(=O)C2CC2)cc1Nc1cc(N2CCC2=O)cc(-c2ncn(C)n2)c1OC [Example A3, 6-(cyclopropanecarboxamido)-4-((2-methoxy-3-(1-methyl-1H-1,2,4-triazol-3-yl)-5-(2-oxoazetidin-1-yl)phenyl)amino)-N-(methyl-d3)pyridazine-3-carboxamide]",IC50,[1],7.5 nM
same,IC50,[2],9.7 nM
same,Kd,Tyk2 JH2 Pseudokinase,0.0071 nM
"[2H]C([2H])([2H])NC(=O)c1nnc(NC(=O)C2CC2)cc1Nc1cc(OC2COC2)cc(-c2ncn(C)n2)c1OC [Example A4, 6-(cyclopropanecarboxamido)-4-((2-methoxy-3-(1-methyl-1H-1,2,4-triazol-3-yl)-5-(oxetan-3-yloxy)phenyl)amino)-N-(methyl-d3)pyridazine-3-carboxamide]",IC50,[1],410 nM
same,IC50,[2],130 nM
same,Kd,Tyk2 JH2 Pseudokinase,0.037 nM
BMS986165,in vivo efficacy in experimental autoimmune disease models,[3],substantial in vivo efficacy
same,block of IL-12/IL-23 and Type I IFN pathways,[4],effectively block
